Measured values: patent US8946439B2, “Amide compounds, compositions and uses thereof” (Evotec AG, priority 2008, dated 2015)

Legend:
hP2X2/3H = biological target: T1, hP2X2/3H (Homo sapiens, UniProt P56373+Q9UBL9); assay: Calcium uptake assay (P2X antagonist assay), P2X2/3 heteromer; assay type: cell-based; conditions: calcium uptake assay, hP2X2/3H; read-out: IC50 hP2X2/3H (nM), Ca Influx
T1 construct: expressed in transfected cells; host or cells: e.g. HEK293 or 1321N1
T1 sequence (Q9UBL9 1-471): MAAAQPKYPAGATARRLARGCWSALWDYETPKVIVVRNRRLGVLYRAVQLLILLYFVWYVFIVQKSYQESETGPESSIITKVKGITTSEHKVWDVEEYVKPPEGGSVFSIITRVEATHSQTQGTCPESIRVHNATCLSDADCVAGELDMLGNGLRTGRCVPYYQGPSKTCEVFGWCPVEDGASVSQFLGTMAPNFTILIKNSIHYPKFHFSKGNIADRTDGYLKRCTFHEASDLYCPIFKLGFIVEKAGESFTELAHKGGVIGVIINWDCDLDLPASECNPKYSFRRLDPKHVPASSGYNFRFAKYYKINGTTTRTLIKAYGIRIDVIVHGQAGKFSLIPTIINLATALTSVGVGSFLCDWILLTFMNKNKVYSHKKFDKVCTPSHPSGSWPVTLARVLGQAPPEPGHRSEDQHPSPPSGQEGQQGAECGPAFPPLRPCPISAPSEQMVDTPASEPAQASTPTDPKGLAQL
T1 sequence (P56373 1-397): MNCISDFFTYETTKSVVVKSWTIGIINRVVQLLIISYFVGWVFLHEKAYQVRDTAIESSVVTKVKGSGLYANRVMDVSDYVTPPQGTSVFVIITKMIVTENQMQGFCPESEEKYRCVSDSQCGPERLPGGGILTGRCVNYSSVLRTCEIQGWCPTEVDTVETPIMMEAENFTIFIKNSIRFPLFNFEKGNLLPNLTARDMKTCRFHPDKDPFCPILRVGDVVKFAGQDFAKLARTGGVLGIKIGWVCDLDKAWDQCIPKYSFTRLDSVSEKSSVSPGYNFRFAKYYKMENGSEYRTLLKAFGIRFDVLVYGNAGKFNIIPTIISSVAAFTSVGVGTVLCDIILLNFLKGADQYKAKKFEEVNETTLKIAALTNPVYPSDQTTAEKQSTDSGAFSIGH
Outline: (§1)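 Stably or transiently transfected HEK293 or 1321N1 cells; the heteromer is made by adding P2X3 to a P2X2-stable line, with heteromer function isolated pharmacologically. The peak-minus-baseline FLIPR calcium signal gives % inhibition and a 4-parameter-logistic IC50.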

hP2X3 = biological target: T2, hP2X3 (Homo sapiens, UniProt P56373); assay: Calcium uptake assay (P2X antagonist assay), P2X3 homomer; assay type: cell-based; conditions: calcium uptake assay, hP2X3; read-out: IC50 hP2X3 (nM), Ca Influx
T2 construct: expressed in transfected cells; host or cells: e.g. HEK293 or 1321N1
T2 sequence (P56373 1-397): T1 sequence (P56373 1-397)
Outline: as §1

| IC50 (hP2X2/3H) [nM] | IC50 (hP2X3) [nM] | SMILES |
| --- | --- | --- |
| 100 to 500 | < 100 | Cc1ccc(-c2cc(C(=O)NCc3ccc(C(F)(F)F)c(F)c3)cc(C(=O)N3CC[C@@H](O)C3)c2)nc1 [Compound 151] |
| < 100 | < 100 | COc1ccc(CNC(=O)c2cc(C(=O)N3CCCC3)cc(-c3ccc(C)cc3)c2)cn1 [Compound 152] |
| 100 to 500 | 100 to 500 | Cc1ccc(-c2cc(C#N)cc(C(=O)NCc3ccc(C)nc3)c2)cc1 [Compound 153] |
| 100 to 500 | 100 to 500 | Cc1ccc(-c2cc(C#N)cc(C(=O)NCc3cnc(C)nc3)c2)cc1 [Compound 154] |
| > 1000 | > 1000 | Cc1ccc(-c2cc(C#N)cc(C(=O)NCc3cnc(C)nc3)c2)nc1 [Compound 155] |
| 100 to 500 | < 100 | Cc1ccc(-c2cc(C(=O)NCc3ccc(C(F)(F)F)nc3)cc(C(=O)N3CC[C@@H](O)C3)c2)cc1 [Compound 156] |
| < 100 | < 100 | Cc1ccc(-c2cc(C(=O)N[C@H](C)c3cnc(C)nc3)cc(C(=O)N3CC[C@@H](O)C3)c2)cc1 [Compound 157] |
| < 100 | < 100 | Cc1ccc(-c2cc(C(=O)N[C@H](C)c3ccc(C(F)(F)F)nc3)cc(C(=O)N3CC[C@@H](O)C3)c2)cc1 [Compound 158] |
| 100 to 500 | 100 to 500 | Cc1ccc(-c2cc(C(=O)NCc3cccc(-n4cnnc4)c3)cc(C(=O)N3CCCC3)c2)cc1 [Compound 159] |
| 501 to 1000 | 100 to 500 | Cc1ccc(-c2cc(C#N)cc(C(=O)NCc3ccc(C)nc3)c2)nc1 [Compound 160] |
| 100 to 500 | < 100 | Cc1ccc(-c2cc(C(N)=O)cc(C(=O)NCc3ccc(C)nc3)c2)cc1 [Compound 161] |
| < 100 | < 100 | Cc1ccc(-c2cc(C(=O)NCc3ccc(C)nc3)cc(C(=O)N(C)Cc3ccncc3)c2)cc1 [Compound 162, N3,4′-Dimethyl-N-5-((6-methylpyridin-3-yl)methyl)-N3-(pyridin-4-ylmethyl)biphenyl-3,5-dicarboxamide] |
| 100 to 500 | < 100 | Cc1ccc(-c2cc(C(=O)NCc3ccc(C)nc3)cc(C(=O)N(C)c3ccncc3)c2)cc1 [Compound 163, N3,4′-Dimethyl-N5-((6-methylpyridin-3-yl)methyl)-N3-(pyridin-4-yl)biphenyl-3,5-dicarboxamide] |
| 100 to 500 | < 100 | Cc1ccc(-c2cc(C(=O)NCc3ccc(C)nc3)cc(C(=O)N(C)c3ccccn3)c2)cc1 [Compound 164] |
| 501 to 1000 | 100 to 500 | Cc1ccc(-c2cc(C(=O)NCc3ccc(C)nc3)cc(C(=O)N(C)[C@@H]3CCNC3)c2)cc1 [Compound 165, (R)—N3,4′-Dimethyl-N5-((6-methylpyridin-3-yl)methyl)-N3-(pyrrolidin-3-yl)biphenyl-3,5-dicarboxamide] |
| 100 to 500 | < 100 | Cc1ccc(-c2cc(C(=O)NCc3ccc(C)nc3)cc(C(=O)N(C)C)c2)cc1 [Compound 166, N3,N3,4′-Trimethyl-N5-((6-methylpyridin-3-yl)methyl)biphenyl-3,5-dicarboxamide] |
| > 1000 | 100 to 500 | Cc1ccc(-c2cc(C(=O)NCc3ccc(C)nc3)cc(C(=O)N(C)C3CCNCC3)c2)cc1 [Compound 167] |
| < 100 | < 100 | Cc1ccc(-c2cc(C(=O)NCc3ccc(C)nc3)cc(C(=O)N(C)CC(F)(F)F)c2)cc1 [Compound 168, N3,4′-Dimethyl-N5-((6-methylpyridin-3-yl)methyl)-N3-(2,2,2-trifluoroethyl)biphenyl-3,5-dicarboxamide] |
| 100 to 500 | 100 to 500 | Cc1ccc(-c2cc(C(=O)NCc3ccc(C)nc3)cc(C(=O)N(C)CC3CCNCC3)c2)cc1 [Compound 169] |
| 100 to 500 | < 100 | CCN(CC)C(=O)c1cc(C(=O)NCc2cnc(C)nc2)cc(-c2ccc(C)cc2)c1 [Compound 170] |
| < 100 | < 100 | Cc1ccc(-c2cc(C(=O)N[C@H](C)c3ccc(C)nc3)cc(S(C)(=O)=O)c2)cc1 [Compound 171] |
| 100 to 500 | < 100 | Cc1ccc(-c2cc(C(=O)NCc3ccc(C)nc3)cc(C(=O)N(C)[C@H]3CCNC3)c2)cc1 [Compound 172] |

| IC50 (hP2X2/3H) [nM] | IC50 (hP2X3) [nM] | SMILES |
| --- | --- | --- |
| < 100 | < 100 | Cc1ccc(-c2cc(C(=O)N[C@H](C)c3ccc(C)nc3)cc(C(=O)N3CCCC3)c2)nc1 [Compound 173] |
| < 100 | < 100 | Cc1ccc(-c2cc(C(=O)N[C@H](C)c3cnc(C)nc3)cc(C(=O)N3CCCC3)c2)nc1 [Compound 174] |
| 100 to 500 | < 100 | Cc1ccc(-c2cc(C(=O)NC(C)c3csc(C)n3)cc(C(=O)N3CCCC3)c2)nc1 (stereo not shown) [Compound 175] |
| < 100 | < 100 | Cc1ccc(-c2cc(C(=O)N[C@H](C)c3ccc(C)nc3)cc(C(=O)N3CCCC3)c2)cc1 [Compound 176] |
| > 1000 | > 1000 | Cc1ccc(-c2cc(C(=O)N[C@@H](C)c3ccc(C)nc3)cc(C(=O)N3CCCC3)c2)cc1 [Compound 177] |
| < 100 | < 100 | Cc1ccc(-c2cc(C(=O)N[C@H](C)c3ccc(C)nc3)cc(C(=O)N3CC[C@@H](O)C3)c2)nc1 [Compound 178] |
| < 100 | < 100 | Cc1ccc(-c2cc(C(=O)NCc3ccc(C)nc3)cc(C(=O)N3CC[C@@H](O)C3)c2)nc1 [Compound 179] |
| 100 to 500 | < 100 | Cc1ccc(-c2cc(C(=O)N[C@H](C)c3ccc(C(F)(F)F)nc3)cc(S(C)(=O)=O)c2)nc1 [Compound 181, (R)-3-(5-Methylpyridin-2-yl)-5-(methylsulfonyl)-N-(1-(6-(trifluoromethyl)pyridin-3-yl)ethyl)benzamide] |
| < 100 | < 100 | Cc1ccc(-c2cc(C(=O)NCc3ccc(C)nc3)cc(S(=O)(=O)CC(C)C)c2)cc1 [Compound 183] |
| < 100 | < 100 | Cc1ccc(-c2cc(C(=O)NCc3cnc(C)nc3)cc(S(=O)(=O)CC(C)C)c2)cc1 [Compound 184] |
| 100 to 500 | 100 to 500 | Cc1ccc(-c2cc(C(=O)NCc3ccc(C)nc3)cc(C(=O)N3Cc4ccccc4C3)c2)cc1 [Compound 185, 5-(Isoindoline-2-carbonyl)-4′-methyl-N-((6-methylpyridin-3-yl)methyl)biphenyl-3-carboxamide] |
| < 100 | 100 to 500 | Cc1ccc(-c2cc(C(=O)NCc3ccc(C)nc3)cc(C(=O)N3CCc4ccccc43)c2)cc1 [Compound 186] |
| 100 to 500 | 100 to 500 | Cc1ccc(-c2cc(C(=O)NCc3ccc(C)nc3)cc(C(=O)N3CCc4ccccc4C3)c2)cc1 [Compound 187, 4′-Methyl-N-((6-methylpyridin-3-yl)methyl)-5-(1,2,3,4-tetrahydroisoquinoline-2-carbonyl)biphenyl-3-carboxamide] |
| 100 to 500 | 100 to 500 | Cc1ccc(-c2cc(C(=O)NCc3ccc(C)nc3)cc(C(=O)N3CCCc4ccccc43)c2)cc1 [Compound 188] |
| < 100 | < 100 | Cc1ccc(-c2cc(C(=O)NCc3ccc(C)nc3)cc(C(=O)N3C(C)CCC3C)c2)cc1 (stereo not shown) [Compound 189] |
| < 100 | 100 to 500 | Cc1ccc(-c2cc(C(=O)NCc3ccc(C)nc3)cc(C(=O)N3CCOc4ccccc43)c2)cc1 [Compound 190] |
| < 100 | < 100 | Cc1ccc(-c2cc(C(=O)N[C@H](C)c3cnc(C)nc3)cc(C(=O)N3CCN4CCCC4C3)c2)cc1 (stereo partly drawn) [Compound 191, 4′-Methyl-N—((R)-1-(2-methylpyrimidin-5-yl)ethyl)-5-(octahydropyrrolo[1,2-a]pyrazine-2-carbonyl)biphenyl-3-carboxamide] |
| < 100 | < 100 | Cc1ccc(-c2cc(C(=O)N[C@H](C)c3ccc(C)nc3)cc(C(=O)N3CCN4CCCC4C3)c2)cc1 (stereo partly shown) [Compound 192] |
| < 100 | < 100 | Cc1ccc(-c2cc(C(=O)NCc3ccc(C)nc3)cc(C(=O)N3C4CCC3CC4)c2)cc1 [Compound 193] |
| < 100 | < 100 | Cc1ccc(-c2cc(C(=O)N[C@H](C)c3cnc(C)nc3)cc(S(=O)(=O)CC(C)C)c2)cc1 [Compound 194] |
| < 100 | < 100 | Cc1ccc(-c2cc(C(=O)NCc3ccc(C)nc3)cc(C(=O)N3[C@H](C)CC[C@H]3C)c2)cc1 [Compound 195] |
| < 100 | 100 to 500 | Cc1ccc(-c2cc(C(=O)N[C@H](C)c3ccc(C)nc3)cc(S(=O)(=O)CC(C)C)c2)cc1 [Compound 196] |
